Patent US20220380370A1 (Goldfinch Bio, Inc., priority 2019, published 2022)

What was measured:
CB2 receptor = biological target: T1, CB2 receptor (Homo sapiens, UniProt P34972); experiment: CB2 cAMP antagonist assay (LANCE Ultra cAMP kit); type: cell-based; conditions: CB2-CHO cells stably expressing the CB2 receptor; forskolin and agonist CP55940 at EC90
T1 construct: host or cells: CB2-CHO cells, stably expressing
Excerpt: (§1) LANCE Ultra cAMP kit (Perkin Elmer) was used to quantitate the amount of 3′,5′-cyclic adenosine monophosphate (cAMP) produced in Flp-In CHO cells (Invitrogen) stably expressing the CB1 receptor, CB1-CHO cells (Perkin Elmer) stably expressing the CB1 receptor, or CB2-CHO cells (Perkin Elmer) stably expressing the CB2 receptor.
(§2) Forskolin was initially titrated to determine the response of the cells. The EC90 of forskolin was used for compound testing. CP55940 was titrated and used with EC90 of forskolin to determine the level of agonist stimulation. EC90 of the agonist was used for subsequent compound testing. For the CB1 assay, Forskolin (Sigma), CP55940 (Cayman Chemicals), and AM251 (MCE) were diluted in 100% DMSO, starting at 100 mM, 1 mM, and 1 mM respectively, in 3-fold serial dilutions. For the CB2 assay, Forskolin (Sigma), CP55940 (Cayman Chemicals), and AM630 (MCE) were diluted in 100% DMSO, starting at 100 mM, 1 mM, and 30 mM respectively, in 3-fold serial dilutions. Test compounds were diluted in 100% DMSO starting from 10 mM, 3-fold dilutions. The cAMP assay buffer contains 1× Hank's Buffered Saline Solution with Ca^2+ and Mg^2+ (Invitrogen), 5.3 mM HEPES (Invitrogen), 0.05% BSA, 0.5 mM IBMX (Sigma). For all assays, cells were harvested, counted, and diluted in cAMP assay buffer to 1×10^5 cells/mL. Only cells with viability >85% were used for the assay. Cells were seeded at 1000 cells/well in 384-well plates and 10 nL/well AM251 (for CB1), AM630 (for CB2) or test compound was added and incubated at 37° C. for 10 min. Then forskolin and agonist were added to reach their EC90 and incubated at 25° C. for 30 min. To detect the amount of cAMP produced, 5 μL of a 100× diluted stock of Eu-cAMP tracer and 5 μL of 200× diluted stock of Ulight-anti-cAMP were added to each well, and the plate incubated at 25° C. for 15 min. The FRET signal was read using an EnVision microplate reader (λex=320 nm, λem=615 nm and 665 nm). The results are expressed as % Inhibition, where % inhibition=100−100×(U−C2)/(C1−C2), where U is the FRET ratio (λem (665 nm)/λem (615 nm)) of sample, C1 is the average of the high controls (signal with no antagonist added), and C2 is the average of low controls (signal with the highest concentration of AM251 or AM630 antagonist). The IC50 is determined by fitting the percentage of inhibition as a function of compound concentrations with the Hill equation, using a 4-parameter fit in either XLfit or GraphPad Prism.

CB1 receptor = biological target: T2, CB1 receptor (Homo sapiens, UniProt P21554); experiment: CB1 cAMP antagonist assay (LANCE Ultra cAMP kit); type: cell-based; conditions: CHO cells stably expressing the CB1 receptor; forskolin and agonist CP55940 at EC90
T2 construct: Perkin Elmer (CB1-CHO cells); host or cells: Flp-In CHO cells or CB1-CHO cells, stably expressing
Excerpt: as §1, §2

T2 sequence (P21554 whole entry): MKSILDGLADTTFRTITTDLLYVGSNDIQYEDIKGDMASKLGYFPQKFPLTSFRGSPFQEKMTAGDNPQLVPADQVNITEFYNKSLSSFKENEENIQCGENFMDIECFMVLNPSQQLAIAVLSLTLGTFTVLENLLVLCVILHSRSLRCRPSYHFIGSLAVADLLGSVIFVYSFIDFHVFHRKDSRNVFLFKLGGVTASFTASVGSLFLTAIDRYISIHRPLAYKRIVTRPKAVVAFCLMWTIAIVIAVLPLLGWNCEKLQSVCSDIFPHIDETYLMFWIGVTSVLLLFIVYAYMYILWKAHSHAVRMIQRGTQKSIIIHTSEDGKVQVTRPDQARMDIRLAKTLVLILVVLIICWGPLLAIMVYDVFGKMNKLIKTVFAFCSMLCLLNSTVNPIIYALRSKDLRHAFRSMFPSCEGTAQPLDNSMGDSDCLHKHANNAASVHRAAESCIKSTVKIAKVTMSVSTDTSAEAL
T1 sequence (P34972 whole entry): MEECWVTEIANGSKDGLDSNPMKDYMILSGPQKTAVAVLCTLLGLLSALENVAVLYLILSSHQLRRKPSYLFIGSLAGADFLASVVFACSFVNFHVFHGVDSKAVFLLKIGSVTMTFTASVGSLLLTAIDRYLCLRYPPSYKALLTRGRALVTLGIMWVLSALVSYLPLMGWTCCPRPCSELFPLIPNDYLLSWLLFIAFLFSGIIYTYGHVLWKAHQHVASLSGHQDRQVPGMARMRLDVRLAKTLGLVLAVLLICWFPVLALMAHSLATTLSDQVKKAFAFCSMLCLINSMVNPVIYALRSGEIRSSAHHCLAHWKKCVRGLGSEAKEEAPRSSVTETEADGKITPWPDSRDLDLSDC

| SMILES | IC50 (CB2 receptor) | IC50 (CB1 receptor) |
| --- | --- | --- |
| CC(c1ccc(C(N)=O)cc1)n1c(=O)n(C[C@@H](O)CO)c(=O)c2c1nc(-c1ccccc1Cl)n2-c1ccc(Cl)cc1 (stereo in doubt) [Compound 150, 4-[(1S)-1-[8-(2-chlorophenyl)-7-(4-chlorophenyl)-1-[(2R)-2,3-dihydroxypropyl]-2,6-dioxopurin-3-yl]ethyl]benzamide] | ≥ 5000 nM | < 100 nM |
| O=c1[nH]c(=O)n(C2CCCCC2)c2nc(-c3ccccc3Cl)n(-c3ccc(Cl)cc3)c12 [Compound 100] | ≥ 5000 nM | < 100 nM |
| COCCn1c(=O)c2c(nc(-c3ccccc3Cl)n2-c2ccc(Cl)cc2)n(C2CCCCC2)c1=O [Compound 101] | ≥ 5000 nM | < 100 nM |
| Cn1c(=O)c2c(nc(-c3ccccc3Cl)n2-c2ccc(Cl)cc2)n(C2CCCCC2)c1=O [Compound 103] | ≥ 5000 nM | < 100 nM |
| O=c1c2c(nc(-c3ccccc3Cl)n2-c2ccc(Cl)cc2)n(C2CCCCC2)c(=O)n1CCO [Compound 104, 8-(2-chlorophenyl)-7-(4-chlorophenyl)-3-cyclohexyl-1-(2-hydroxyethyl)-2,3,6,7-tetrahydro-1H-purine-2,6-dione] | ≥ 5000 nM | < 100 nM |
| O=c1c2c(nc(-c3ccccc3Cl)n2-c2ccc(Cl)cc2)n(C2CCCCC2)c(=O)n1CCCO [Compound 105] | ≥ 5000 nM | < 100 nM |
| NC(=O)Cn1c(=O)c2c(nc(-c3ccccc3Cl)n2-c2ccc(Cl)cc2)n(C2CCCCC2)c1=O [Compound 106] | ≥ 5000 nM | < 100 nM |
| Cn1c(=O)c2c(nc(-c3ccccc3Cl)n2-c2ccc(Cl)cc2)n(Cc2ccc(C(=O)NCCO)cc2)c1=O [Compound 112] | ≥ 5000 nM | < 100 nM |
| Cn1c(=O)c2c(nc(-c3ccccc3Cl)n2-c2ccc(Cl)cc2)n(Cc2ccc(C(N)=O)cc2)c1=O [Compound 114] | ≥ 5000 nM | < 100 nM |
| NC(=O)Cn1c(=O)c2c(nc(-c3ccccc3Cl)n2-c2ccc(Cl)cc2)n(CC2CCOCC2)c1=O [Compound 125, 2-[8-(2-chlorophenyl)-7-(4-chlorophenyl)-3-(oxan-4-ylmethyl)-2,6-dioxopurin-1-yl]acetamide] | ≥ 5000 nM | < 100 nM |
| C[C@H](c1ccc(C(=O)NCCO)cc1)n1c(=O)n(C)c(=O)c2c1nc(-c1ccccc1Cl)n2-c1ccc(Cl)cc1 [Compound 131] | ≥ 5000 nM | < 100 nM |
| NC(=O)c1ccc(Cn2c(=O)n(C[C@@H](O)CO)c(=O)c3c2nc(-c2ccccc2Cl)n3-c2ccc(Cl)cc2)cc1 [Compound 132, 4-[[8-(2-chlorophenyl)-7-(4-chlorophenyl)-1-[(2R)-2,3-dihydroxypropyl]-2,6-dioxopurin-3-yl]methyl]benzamide] | ≥ 5000 nM | < 100 nM |
| Cn1c(=O)c2c(nc(-c3ccccc3Cl)n2-c2ccc(Cl)cc2)n(Cc2ccc(S(N)(=O)=O)cc2)c1=O [Compound 135, 4-[[8-(2-chlorophenyl)-7-(4-chlorophenyl)-1-methyl-2,6-dioxopurin-3-yl]methyl]benzenesulfonamide] | ≥ 5000 nM | < 100 nM |
| NC(=O)Cn1c(=O)c2c(nc(-c3ccccc3Cl)n2-c2ccc(Cl)cc2)n(CC2CCS(=O)(=O)CC2)c1=O [Compound 136, 2-[8-(2-chlorophenyl)-7-(4-chlorophenyl)-3-[(1,1-dioxo-1λ^6-thian-4-yl)methyl]-2,6-dioxopurin-1-yl]acetamide] | ≥ 5000 nM | < 100 nM |
| Cn1c(=O)c2c(nc(-c3ccccc3Cl)n2-c2ccc(Cl)cc2)n(Cc2ccc(S(N)(=O)=O)cn2)c1=O [Compound 159, 6-[[8-(2-chlorophenyl)-7-(4-chlorophenyl)-1-methyl-2,6-dioxopurin-3-yl]methyl]pyridine-3-sulfonamide] | ≥ 5000 nM | < 100 nM |
| Cn1c(=O)c2c(nc(-c3ccccc3Cl)n2-c2ccc(Cl)cc2)n(Cc2ccc(S(=O)(=O)NCCO)cn2)c1=O [Compound 164, 6-[[8-(2-chlorophenyl)-7-(4-chlorophenyl)-1-methyl-2,6-dioxopurin-3-yl]methyl]-N-(2-hydroxyethyl)pyridine-3-sulfonamide] | ≥ 5000 nM | < 100 nM |
| Cn1c(=O)c2c(nc(-c3ccccc3Cl)n2-c2ccc(Cl)cc2)n(Cc2ccc(C(=O)NC3CCOCC3)cn2)c1=O [Compound 165] | ≥ 5000 nM | < 100 nM |
| CS(=O)(=O)N1CCC(Cn2c(=O)n(CC(N)=O)c(=O)c3c2nc(-c2ncccc2Cl)n3-c2ccc(Cl)cc2)CC1 [Compound 170, 2-[7-(4-chlorophenyl)-8-(3-chloropyridin-2-yl)-3-[(1-methanesulfonylpiperidin-4-yl)methyl]-2,6-dioxopurin-1-yl]acetamide] | ≥ 5000 nM | < 100 nM |
